Publication PMC10878397, “Development of Potent Dual BET/HDAC Inhibitors via Pharmacophore Merging and Structure-Guided Optimization” (ACS Chemical Biology, 2024)
“And” between values parts separate entries of the source, which are not always exact repeats. Equal entries are not always repeated. Where two headings read alike, the source gives them in different places.

Key:
[1] = set-up: method as in PMID 30649740; details: cited from earlier work
HCC2429 cells = experiment: CellTiter-Glo cell viability assay; format: cell-based; details: Homo sapiens, HCC2429, 72 h; treatment for 3 days
Method: (§1) PDAC cell line PaTu8988T was obtained from ATCC and cultured in Dulbecco’s modified Eagle’s medium (DMEM) containing 10% FBS, 25 mM glucose, […], 1 mM sodium pyruvate, and 1% penicillin–streptomycin. Nut midline carcinoma cell line HCC2429 was kindly provided by Lead Discovery Center GmbH (Dortmund, Germany) and was cultured in RPMI1640 medium containing 10% FBS, 2 mM L-glutamine, and 1% penicillin–streptomycin. Cell line PaTu8988T was authenticated using the Multiplex human Cell line Authentication Test (MCA) by Multiplexion GmbH, and cell line HCC2429 was authenticated using short tandem repeat (STR) profiling.
(§2) The assays were performed using Promega’s CellTiter-Glo Luminescent Cell Viability Assay kit (Cat. #G7571). First, compounds dissolved in DMSO were printed in 96-well plates (Corning) by using a Tecan D300e digital dispenser. Then, cells were seeded into the compound-printed plates using a Thermo Multidrop reagent dispenser. 72 h later, one volume of diluted CellTiter-Glo reagent (1:4 dilution with PBS) was added to individual wells by using the Thermo Multidrop reagent dispenser again. Plates were shaken for 2 min and incubated for 10 min in the dark. Luminescent signals were read by using a Tecan Spark Multimode Microplate Reader. The values were normalized to the DMSO control wells and presented as a percentage of cell viability. Dose–response curves were drawn with GraphPad Prism 8.

PaTu8988T cells = experiment: CellTiter-Glo cell viability assay; format: cell-based; details: Homo sapiens, PaTu 8988t, 72 h; treatment for 3 days
Method: as §1, §2

BRD4 BD1 [2] = target: T1, BRD4 BD1 (Homo sapiens, UniProt O60885); experiment: NanoBRET target engagement assay (HEK293T); format: cell-based; set-up: BRD4 bromodomains and full-length HDACs were obtained as plasmids cloned in-frame with a terminal NanoLuc fusion; host or cells: HEK293T
Method: (§3) The assay was performed as described previously.[17],[59] In brief, BRD4 bromodomains and full-length HDACs were obtained as plasmids cloned in-frame with a terminal NanoLuc fusion (Promega). Plasmids were transfected into HEK293T cells using FuGENE HD (Promega, E2312), and proteins were allowed to express for 20 h. Serially diluted inhibitor and the corresponding NanoBRET Tracer (Promega) at a concentration determined previously as the tracer KD, app were pipetted into white 384-well plates (Greiner #781207) for BRD assays or white 96-well plates (Corning #3600) for HDAC using an Echo acoustic dispenser (Labcyte). The corresponding protein-transfected cells were added and reseeded at a density of 2 × 10^5 cells/mL after trypsinization and resuspended in Opti-MEM without phenol red (Life Technologies). The system was allowed to equilibrate for 2 h at 37 °C/5% CO2 prior to BRET measurements. To measure BRET, NanoBRET NanoGlo substrate + Extracellular NanoLuc Inhibitor (Promega, N2540) was added as per the manufacturer’s protocol, and filtered luminescence was measured on a PHERAstar plate reader (BMG Labtech) equipped with a luminescence filter pair (450 nm BP filter (donor) and 610 nm LP filter (acceptor)). For lysed-mode NanoBRET experiments, digitonin (Promega, #G9441) was added as per the manufacturer’s instructions to a final concentration of […].

BRD4 BD2 [3] = target: T2, BRD4 BD2 (Homo sapiens, UniProt O60885); experiment: NanoBRET target engagement assay (HEK293T); format: cell-based; set-up: BRD4 bromodomains and full-length HDACs were obtained as plasmids cloned in-frame with a terminal NanoLuc fusion; host or cells: HEK293T
Method: as §3

HDAC1 = HDAC1 (Homo sapiens, UniProt Q13547); experiment: NanoBRET target engagement assay (HEK293T); format: cell-based; set-up: BRD4 bromodomains and full-length HDACs were obtained as plasmids cloned in-frame with a terminal NanoLuc fusion; host or cells: HEK293T
HDAC1, sequence (Q13547 whole entry, the tested form may be a part): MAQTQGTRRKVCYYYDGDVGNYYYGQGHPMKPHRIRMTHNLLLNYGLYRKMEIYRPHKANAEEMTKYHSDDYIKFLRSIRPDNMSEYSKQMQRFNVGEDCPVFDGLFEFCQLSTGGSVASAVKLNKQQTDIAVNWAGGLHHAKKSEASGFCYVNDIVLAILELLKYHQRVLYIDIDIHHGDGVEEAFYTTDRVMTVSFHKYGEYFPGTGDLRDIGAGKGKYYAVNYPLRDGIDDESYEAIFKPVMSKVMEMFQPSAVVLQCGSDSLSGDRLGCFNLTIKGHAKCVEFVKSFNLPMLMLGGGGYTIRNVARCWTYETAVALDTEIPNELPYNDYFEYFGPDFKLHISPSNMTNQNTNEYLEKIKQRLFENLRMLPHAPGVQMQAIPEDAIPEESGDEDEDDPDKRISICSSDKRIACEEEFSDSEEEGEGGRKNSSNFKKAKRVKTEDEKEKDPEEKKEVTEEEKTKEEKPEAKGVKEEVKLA
Method: (§4) The assay was performed as described previously.[17],[59] In brief, BRD4 bromodomains and full-length HDACs were obtained as plasmids cloned in-frame with a terminal NanoLuc fusion (Promega). Plasmids were transfected into HEK293T cells using FuGENE HD (Promega, E2312), and proteins were allowed to express for 20 h. […] The corresponding protein-transfected cells were added and reseeded at a density of 2 × 10^5 cells/mL after trypsinization and resuspended in Opti-MEM without phenol red (Life Technologies). The system was allowed to equilibrate for 2 h at 37 °C/5% CO2 prior to BRET measurements. […] For lysed-mode NanoBRET experiments, digitonin (Promega, #G9441) was added as per the manufacturer’s instructions to a final concentration of […].

HDAC2 = HDAC2 (Homo sapiens, UniProt Q92769); experiment: NanoBRET target engagement assay (HEK293T); format: cell-based; set-up: BRD4 bromodomains and full-length HDACs were obtained as plasmids cloned in-frame with a terminal NanoLuc fusion; host or cells: HEK293T
HDAC2, sequence (Q92769 whole entry, the tested form may be a part): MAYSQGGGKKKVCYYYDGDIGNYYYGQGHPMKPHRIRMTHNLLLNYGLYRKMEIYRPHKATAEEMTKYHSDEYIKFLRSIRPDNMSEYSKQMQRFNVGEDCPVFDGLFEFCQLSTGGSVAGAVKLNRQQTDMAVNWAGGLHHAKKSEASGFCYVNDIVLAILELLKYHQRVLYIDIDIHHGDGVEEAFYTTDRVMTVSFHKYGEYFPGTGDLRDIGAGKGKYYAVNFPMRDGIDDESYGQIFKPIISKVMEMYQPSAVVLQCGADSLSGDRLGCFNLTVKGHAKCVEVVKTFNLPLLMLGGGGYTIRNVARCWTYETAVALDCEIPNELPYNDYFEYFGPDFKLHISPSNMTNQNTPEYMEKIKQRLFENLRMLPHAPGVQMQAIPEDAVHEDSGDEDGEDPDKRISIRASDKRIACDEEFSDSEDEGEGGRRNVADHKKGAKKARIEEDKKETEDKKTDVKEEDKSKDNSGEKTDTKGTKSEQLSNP
Method: as §4

HDAC3 = HDAC3 (Homo sapiens, UniProt O15379); experiment: NanoBRET target engagement assay (HEK293T); format: cell-based; set-up: BRD4 bromodomains and full-length HDACs were obtained as plasmids cloned in-frame with a terminal NanoLuc fusion; host or cells: HEK293T; details: intact cells
HDAC3, sequence (O15379 whole entry, the tested form may be a part): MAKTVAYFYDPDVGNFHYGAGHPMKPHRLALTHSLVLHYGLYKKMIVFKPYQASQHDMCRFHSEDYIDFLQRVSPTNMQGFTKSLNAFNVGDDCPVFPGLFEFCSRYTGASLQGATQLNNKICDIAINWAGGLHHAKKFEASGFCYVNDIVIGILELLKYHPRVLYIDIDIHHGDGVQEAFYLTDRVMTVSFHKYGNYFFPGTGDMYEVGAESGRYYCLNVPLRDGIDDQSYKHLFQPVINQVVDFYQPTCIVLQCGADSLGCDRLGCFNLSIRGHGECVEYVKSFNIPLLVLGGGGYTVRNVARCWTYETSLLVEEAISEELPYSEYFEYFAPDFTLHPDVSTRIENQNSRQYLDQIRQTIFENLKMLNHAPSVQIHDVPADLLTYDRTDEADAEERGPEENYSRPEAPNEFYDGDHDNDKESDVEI
Method: as §4

BRD4 BD1 [4] = target: T1, BRD4 BD1; experiment: DSF thermal shift assay; format: binding; set-up: purchased in-house (SGC Frankfurt recombinant bromodomain DSF panel)
Method: (§5) The effects of inhibitor binding on the apparent melting temperature of recombinant bromodomains were determined by DSF in a 96-well plate (Starlab) at a protein concentration of 2 μM with 10 μΜ compound in buffer containing 25 mM HEPES, pH 7.5, 150 mM NaCl, and 0.5 mM TCEP. […] Protein unfolding profiles were recorded using an MX3005P real-time qPCR instrument (Agilent; excitation/emission filters = 492/610 nm) while increasing the temperature from 25 to 95 °C at a heating rate of 3 °C/min. Tm values were calculated after fitting the fluorescence curves to the Boltzmann equation. Differences in melting temperature upon compound binding are given as ΔTm = Tm (protein with inhibitor) – Tm (protein with DMSO control). Measurements were performed in triplicates.

BRD4 BD2 [5] = target: T2, BRD4 BD2; experiment: DSF thermal shift assay; format: binding; set-up: purchased in-house (SGC Frankfurt recombinant bromodomain DSF panel)
Method: as §5

BRD4 bromodomains = BRD4 bromodomains (Homo sapiens, UniProt O60885); experiment: NanoBRET target engagement assay, both bromodomains; format: cell-based
Method: as §3

[6] = 10 μM compound, 2 μM protein, read-out: DSF ΔTm BRD4 BD1
[7] = 10 μM compound, 2 μM protein, read-out: DSF ΔTm BRD4 BD2
[8] = read-out: DSF ΔTm BRD4 BD1, 10 μM compound, 2 μM protein
[9] = read-out: DSF ΔTm BRD4 BD2, 10 μM compound, 2 μM protein

SMILES	IC50 (HCC2429 cells) [nM]	IC50 (PaTu8988T cells) [µM]	EC50 (BRD4 BD1 [2]; intact cells) [nM]	EC50 (BRD4 BD2 [3]; intact cells) [nM]	EC50 (HDAC1; intact cells)	EC50 (HDAC1; lysed cells (digitonin)) [µM]	EC50 (HDAC2; intact cells)	ΔTm at 10 µM (BRD4 BD1 [4]; [6]) [°C]	ΔTm at 10 µM (BRD4 BD2 [5]; [7]) [°C]	further results
O=C(CCCCCCC(=O)Nc1ccccc1)NO [SAHA, suberoyl anilide hydroxamic acid]										metabolic half-life [1]: 2 h
Cn1cc(-c2ccc(C(=O)Nc3cc(-c4cccs4)ccc3N)nc2)c2cc[nH]c2c1=O [NB514]	550 ± 60	4.1 ± 0.7	290 ± 50	180 ± 40	0.14 ± 0.05 µM	0.022 ± 0.008	0.058 µM and 0.06 µM			EC50 (HDAC3): 11.4 ± 6.9 µM
Cn1cc(-c2ccc(C(=O)Nc3ccccc3N)cc2N)c2cc[nH]c2c1=O [NB469]			3700 ± 500	2100 ± 400	34.4 ± 5.8 µM	32.2 ± 7.1	39.7 ± 9 µM	0.9 ± 0.2	1.7 ± 0.3	
Cn1cc(-c2ccc(C(=O)Nc3ccccc3N)nn2)c2cc[nH]c2c1=O [NB501]	540 ± 60	8.5 ± 1.3	390 ± 20	290 ± 120	16.8 ± 6.7 µM		4.6 ± 0.6 µM			fold reduced binding to BRD4 compared with NB500 (BRD4 bromodomains; NanoBRET): about 2 fold; ΔTm at 10 µM (BRD4 BD1 [4]; [8]): 2.9 ± 0.3 °C; ΔTm at 10 µM (BRD4 BD2 [5]; [9]): 3.6 ± 0.2 °C
CC(=O)Nc1ccc(C(=O)Nc2ccccc2N)cc1 [CI-994, reference compound]	1800 ± 200	13.1 ± 2.4								EC50 (BRD4 BD1 [2]; lysed cells (digitonin)): > 50000 nM; EC50 (BRD4 BD2 [3]; lysed cells (digitonin)): > 50000 nM
Cn1cc(-c2ccc(C(=O)Nc3cc(-c4ccco4)ccc3N)nc2)c2cc[nH]c2c1=O [NB513]	320 ± 40	2.6 ± 0.3	370 ± 50	310 ± 50	1.3 ± 1 µM		2.9 ± 1.7 µM			
Cc1cc(/N=N/c2ccc(S(=O)(=O)Nc3ccccn3)cc2)c(N)cc1O [MS436, reference compound]	810 ± 150	10.4 ± 1.2			18.8 ± 1 µM	> 50	> 50 µM	4 ± 0.4	~3	DSF ΔTm BRD4 BD2 (BRD4 BD2 [5]; 10 μM compound, 2 μM protein): 2.9 ± 0.1 K; EC50 (HDAC2; lysed cells (digitonin)): > 50 µM
Cn1cc(-c2ccc3cc(C(=O)Nc4ccccc4N)ccc3n2)c2cc[nH]c2c1=O [NB437]			180 ± 30	200 ± 30	23.2 µM and 23 µM	11 ± 1.8	24.8 µM and 25 µM			EC50 (BRD4 bromodomains; BD1 and BD2, intact cells, read-out: NanoBRET EC50 BRD4 bromodomains): 100 to 400 nM; DSF ΔTm BRD4 BD1 (BRD4 BD1 [4]; 10 μM compound, 2 μM protein): 4.0 ± 0.2 K; ΔTm at 10 µM (BRD4 BD1 [4]; [8]): 4 to 5 °C; DSF ΔTm BRD4 BD2 (BRD4 BD2 [5]; 10 μM compound, 2 μM protein): 4.8 ± 0.2 K; ΔTm at 10 µM (BRD4 BD2 [5]; [9]): 4 to 5 °C
Cn1cc(C(=O)Nc2ccc(C(=O)Nc3ccccc3N)cc2)c2cc[nH]c2c1=O [NB480]			2600 ± 100	2900 ± 200	2.3 ± 0.6 µM		3.7 ± 2.4 µM	1.9 ± 0.2	1.9 ± 0.3	
Cn1cc(-c2ccc(C(=O)Nc3ccc(F)cc3N)nc2)c2cc[nH]c2c1=O [NB507]	240 ± 20	5.2 ± 0.9	340 ± 100	100 ± 10	36.3 µM and 36 µM	8.2 ± 2.1	14.2 ± 4.5 µM			EC50 (HDAC3): > 50 µM
Cc1cc(/N=N/c2ccc(C(=O)Nc3ccccc3N)cc2)c2cc[nH]c2c1O [NB390]			190 ± 30	50 ± 10	2.1 ± 0.7 µM		1.3 ± 0.9 µM	7.5 ± 0.2	5.2 ± 0.2	
Cc1cc(/N=N/c2ccc(C(=O)Nc3ccccc3N)cc2)c(N)cc1O [NB161]					10.8 ± 5.1 µM		> 50 µM	5.3	~3	DSF ΔTm BRD4 BD1 (BRD4 BD1 [4]; 10 μM compound, 2 μM protein): 5.2 ± 0.3 K
COc1cc(C(=O)Nc2ccccc2N)ccc1-c1cn(C)c(=O)c2[nH]ccc12 [NB470]			390 ± 60	230 ± 70	> 50 µM	> 50	> 50 µM	3.8 ± 0.1	4.3 ± 0.3	
